Results published in US20260375233A1, “COMPOSITION FOR IMPROVING SKIN WRINKLES” (LG H&H CO., LTD., priority 2022, published 2026).

Experiments:
Assay type in all cases: cell-based
[1] = test system: Type IV collagen (COL4A1); test: collagen mRNA synthesis promotion (qPCR), COL4A1 in human skin fibroblasts; conditions: 24 hours, mRNA by qPCR
Experimental: (§1) Human skin fibroblasts (NHDF-Neo-Human Dermal Fibroblasts, Neonatal, Lonza, CC-2509) were purchased from Lonza and then used. The purchased cells were cultured in an incubator (37 °C, 5% CO2) using media prepared by mixing Dulbecco Modified Eagle Medium (DMEM, Thermo Fisher Scientific) with 10% fetal bovine serum (FBS) and 1% antibiotics (penicillin streptomycin).
(§2) To analyze the efficacy of promoting collagen mRNA synthesis, human skin fibroblasts were dispensed on a 6-well plate at 1.5×10^5 cells/well and cultured in an incubator (37 °C, 5% CO2) for 24 hours. The substances were added to serum free media at an appropriate concentration/combination, and then the cells were again cultured for 24 hours under the same conditions. Thereafter, mRNA was obtained using an RNA-spin total RNA extraction kit (iNtRON Biotechnology, 17211), and cDNA was synthesized using a cDNA synthesis kit (PhileKorea Technology, ET21100). The expression level of each gene was analyzed by performing qPCR using the synthesized cDNA and taqman probes (assay ID: COL1A1-Hs00164004_m1, COL3A1-Hs00943809_m1, COL4A1-Hs00266237_m1, BNC2-Hs00417700_m1, EDAR-Hs00223468_m1).
as §2, with “COL1A1-Hs00164004_m1,” for “COL1A1-Hs00164004_m1, COL3A1-Hs00943809_m1,”, “sgpp2-Hs00544786_m1), ADIPOQ F primer (5′-[…]-3′), and ADIPOQ R primer (5′-[…]-3′).” for “BNC2-Hs00417700_m1, EDAR-Hs00223468_m1).”

ADIPOQ = ADIPOQ gene expression (qPCR) in human skin fibroblasts; conditions: 24 hours, FIG. 16
Experimental: as §1
as §2, with “COL1A1-Hs00164004_m1,” for “COL1A1-Hs00164004_m1, COL3A1-Hs00943809_m1,”, “sgpp2-Hs00544786_m1), ADIPOQ F primer (5′-[…]-3′), and ADIPOQ R primer (5′-[…]-3′).” for “BNC2-Hs00417700_m1, EDAR-Hs00223468_m1).”
As another example, ADIPOQ, a gene expressing adiponectin, is a substance primarily secreted in adipose tissue, and ADIPOQ in the skin is mainly known for anti-inflammatory effects thereof. […]

Type I collagen (COL1A1) = test: collagen mRNA synthesis promotion (qPCR), COL1A1 in human skin fibroblasts; conditions: 24 hours, mRNA by qPCR
Experimental: as §1, §2
as §2, with “COL1A1-Hs00164004_m1,” for “COL1A1-Hs00164004_m1, COL3A1-Hs00943809_m1,”, “sgpp2-Hs00544786_m1), ADIPOQ F primer (5′-[…]-3′), and ADIPOQ R primer (5′-[…]-3′).” for “BNC2-Hs00417700_m1, EDAR-Hs00223468_m1).”
as §2, with “PPARGC1B-Hs00993805_m1, SPATA5-Hs01047535_m1, EN1-Hs00154977_m1).” for “COL4A1-Hs00266237_m1, BNC2-Hs00417700_m1, EDAR-Hs00223468_m1).”

PPARGC1B = PPARGC1B gene expression (qPCR) in human skin fibroblasts; conditions: 24 hours, Non-treated = 1.00
Experimental: as §1
as §2, with “PPARGC1B-Hs00993805_m1, SPATA5-Hs01047535_m1, EN1-Hs00154977_m1).” for “COL4A1-Hs00266237_m1, BNC2-Hs00417700_m1, EDAR-Hs00223468_m1).”
For example, PPARGC1B, one of co-activators of peroxisome proliferator activated receptor-γ (PPARγ), has been known to be associated with melanogenesis in the skin. PPARGC1B has been reported to be involved in the wrinkle formation by mitochondrial dysfunction and the wrinkle reduction by mitochondrial function recovery (Cell Death & Disease volume 9, Article number: 735 (2018)). Therefore, the increased expression level of PPARGC1B serves to restore the function of mitochondria, which are cell energy producing organelles, thereby preventing and recovering from nasolabial wrinkles, which are deeply indented wrinkles accumulated over a relatively long time. That is, it can be seen that the increase in expression level of PPARGC1B by the treatment with the substances of the present invention is effective in wrinkle improvement.

BNC2 = BNC2 gene expression (qPCR) in human skin fibroblasts; conditions: 24 hours, FIG. 6
Experimental: as §1, §2
The degrees of fine wrinkle improvement by the substances of the present invention were investigated on the basis of the polymorphism markers showing correlations with the degree of skin fine wrinkles, obtained through Example 1. […]

[2] = test system: Type III collagen (COL3A1); test: collagen mRNA synthesis promotion (qPCR), COL3A1 in human skin fibroblasts; conditions: 24 hours, mRNA by qPCR
Experimental: as §1
as §2, with “Thereafter, mRNA was obtained using an RNA-spin total RNA extraction kit (iNtRON Biotechnology, 17211), and cDNA was synthesized using a cDNA synthesis kit (PhileKorea Technology, ET21100).” left out
To analyze the efficacy of promoting collagen mRNA synthesis, human skin fibroblasts were dispensed on a 6-well plate at 1.5×10^5 cells/well and cultured in an incubator (37 °C, 5% CO2) for 24 hours. […] The expression level of each gene was analyzed by performing qPCR using the synthesized cDNA and taqman probes (assay ID: COL1A1-Hs00164004_m1, COL3A1-Hs00943809_m1, PPARGC1B-Hs00993805_m1, SPATA5-Hs01047535_m1, EN1-Hs00154977_m1).

SGPP2 = SGPP2 gene expression (qPCR) in human skin fibroblasts; conditions: 24 hours, FIG. 15
Experimental: as §1
as §2, with “COL1A1-Hs00164004_m1,” for “COL1A1-Hs00164004_m1, COL3A1-Hs00943809_m1,”, “sgpp2-Hs00544786_m1), ADIPOQ F primer (5′-[…]-3′), and ADIPOQ R primer (5′-[…]-3′).” for “BNC2-Hs00417700_m1, EDAR-Hs00223468_m1).”
For example, SGPP2 is a gene expressing an enzyme capable of dominantly acting in an inflammation status, and the overactivity of SGPP2 may be more vulnerable to inflammatory signals. […]

SPATA5 = SPATA5 gene expression (qPCR) in human skin fibroblasts; conditions: 24 hours, Untreated = 1.00
Experimental: as §1
as §2, with “PPARGC1B-Hs00993805_m1, SPATA5-Hs01047535_m1, EN1-Hs00154977_m1).” for “COL4A1-Hs00266237_m1, BNC2-Hs00417700_m1, EDAR-Hs00223468_m1).”
Although the role of SPATA5 in the skin has not been studied, SPATA5 may play a role in mitochondrial function and ATP production. […]

EDAR = EDAR gene expression (qPCR) in human skin fibroblasts; conditions: 24 hours, FIG. 7
Experimental: as §1
as §2, with “EDAR-Hs00223468_m1). […]” for “EDAR-Hs00223468_m1).”

Compound | expression of Type IV collagen (COL4A1) [1] | expression of Type I collagen (COL1A1) (Type I collagen (COL1A1)) | further results
Cc1cc(O)c2c(c1)C(=O)c1cc(O)cc(O)c1C2=O [emodin] | promoted the expression | promoted the expression | expression of ADIPOQ (ADIPOQ): increased the expression
O=C[C@@H](O)[C@@H](O)[C@H](O)[C@H](O)COP(=O)([O-])[O-].[Na+].[Na+] [sodium mannose phosphate, D-mannose-6-phosphate sodium salt] | – | promoted the expression | Gene expression level (PPARGC1B) (PPARGC1B): 1.53
O=C(CCc1ccc(O)cc1)c1c(O)cc(O)cc1O [phloretin] | promoted the expression | promoted the expression | expression of BNC2 (BNC2): inhibited the expression; expression of Type III collagen (COL3A1) [2]: promoted the expression
COc1ccc(-c2coc3cc(O)ccc3c2=O)cc1 [formononetin] | promoted the expression | promoted the expression | expression of ADIPOQ (ADIPOQ): increased the expression
COc1cc(/C=C/C(=O)NCCc2c[nH]c3ccc(O)cc23)ccc1O [N-feruloylserotonin] | promoted the expression | – | expression of SGPP2 (SGPP2): inhibited the expression
Cc1ncc(CO)c(CO)c1O.Cl [pyridoxine HCl] | – | promoted the expression | Expression level of gene (SPATA5) (SPATA5): 1.36
CC12CCC(CC1=O)C2(C)C (centres unmarked) [camphor] | – | promoted the expression | Gene expression level (PPARGC1B) (PPARGC1B): 2.63
C=C(C)[C@@H]1CC[C@]2(C)CC[C@@H]3[C@H](CC[C@H]4[C@@]3(C)CC[C@H]3C(C)(C)[C@@H](O)CC[C@]43C)[C@@H]12 [lupeol] | – | – | expression of Type III collagen (COL3A1) [2]: promoted the expression; expression of EDAR (EDAR): increased the expression
fucoidan | promoted the expression | – | expression of SGPP2 (SGPP2): inhibited the expression
NC(=O)c1cccnc1 [niacinamide] | – | promoted the expression | Gene expression level (PPARGC1B) (PPARGC1B): 1.52
NC[C@H]1CC[C@H](C(=O)O)CC1 [tranexamic acid, reference compound] | – | promoted the expression | Expression level of gene (SPATA5) (SPATA5): 1.21
